Results: patent US5863773A, “Antifungal corynecandin” (Abbott Laboratories, priority 1997, dated 1999)
≈ marks a conversion by molar mass, not a printed value. Numbered stars: 1 amine (or outer) side, 2 acyl side, 3 side chain; on linkers, the order of the positions; unused ones are H or OH. Bridge positions count the residues as written; N and C are the ends. Square brackets hold non-standard residues; d marks the D form. Peptide text beside a SMILES is read from it. * marks the point of attachment. Orn(4R-OH,5R-OH) = O=C([C@H](C[C@@H](O)[C@@H](O)N[*:3])N[*:1])[*:2]; hTyr(3S-OH,4S-OH) = N[C@H](C(=O)O)[C@H](O)[C@@H](O)c1ccc(O)cc1; Pro(3S-OH,4S-Me) = C[C@H]1CN[C@H](C(=O)O)[C@H]1O; Benzoyl(4-octyloxy) = CCCCCCCCOc1ccc(C(=O)*)cc1; Hyp = O=C(O)[C@@H]1C[C@@H](O)CN1

Tests used:
fungal organisms = assay: Microtiter broth dilution assay of antifungal activity (MIC) in the presence and absence of 0.8M sorbitol; format: cell-based; details: for MIC: 48 h, read-out: Broth Dilution Assay MIC at 2 day growth, w/o sorbitol; for Broth Dilution Assay MIC at 2 day growth, with sorbitol: with 0.8M sorbitol; for Broth Dilution Assay MIC at 2 day growth, with sorbitol / Broth Dilution Assay MIC at 2 day growth, w/o sorbitol: final concentration of cells 2 × 10^5 organisms/ml; for Broth Dilution Assay MIC at 2 day growth, w/o sorbitol: without sorbitol
Protocol: Minimal inhibitory concentrations (MICs) of corynecandin related compounds in the microtiter broth dilution in the presence and absence of 0.8M sorbitol assay were determined by a broth dilution assay described by Frost, D., Brandt, K., Cugier, D., and Goldman, R. in J. Antibiotics 48: 306-310 (1995), which is incorporated herein by reference.
^a Assay conducted as described in Frost et al., ibid, except final
concentration of cells was 2 × 10^5 organisms/ml.

(1,3)-β-Glucan Synthase = target: T1, (1,3)-β-Glucan Synthase (Candida albicans, UniProt A0A1D8PCT0); assay: In vitro inhibition of (1,3)-β-glucan synthase activity; format: biochemical
T1 construct: integral plasma membrane protein
T1 sequence (A0A1D8PCT0 1-1897): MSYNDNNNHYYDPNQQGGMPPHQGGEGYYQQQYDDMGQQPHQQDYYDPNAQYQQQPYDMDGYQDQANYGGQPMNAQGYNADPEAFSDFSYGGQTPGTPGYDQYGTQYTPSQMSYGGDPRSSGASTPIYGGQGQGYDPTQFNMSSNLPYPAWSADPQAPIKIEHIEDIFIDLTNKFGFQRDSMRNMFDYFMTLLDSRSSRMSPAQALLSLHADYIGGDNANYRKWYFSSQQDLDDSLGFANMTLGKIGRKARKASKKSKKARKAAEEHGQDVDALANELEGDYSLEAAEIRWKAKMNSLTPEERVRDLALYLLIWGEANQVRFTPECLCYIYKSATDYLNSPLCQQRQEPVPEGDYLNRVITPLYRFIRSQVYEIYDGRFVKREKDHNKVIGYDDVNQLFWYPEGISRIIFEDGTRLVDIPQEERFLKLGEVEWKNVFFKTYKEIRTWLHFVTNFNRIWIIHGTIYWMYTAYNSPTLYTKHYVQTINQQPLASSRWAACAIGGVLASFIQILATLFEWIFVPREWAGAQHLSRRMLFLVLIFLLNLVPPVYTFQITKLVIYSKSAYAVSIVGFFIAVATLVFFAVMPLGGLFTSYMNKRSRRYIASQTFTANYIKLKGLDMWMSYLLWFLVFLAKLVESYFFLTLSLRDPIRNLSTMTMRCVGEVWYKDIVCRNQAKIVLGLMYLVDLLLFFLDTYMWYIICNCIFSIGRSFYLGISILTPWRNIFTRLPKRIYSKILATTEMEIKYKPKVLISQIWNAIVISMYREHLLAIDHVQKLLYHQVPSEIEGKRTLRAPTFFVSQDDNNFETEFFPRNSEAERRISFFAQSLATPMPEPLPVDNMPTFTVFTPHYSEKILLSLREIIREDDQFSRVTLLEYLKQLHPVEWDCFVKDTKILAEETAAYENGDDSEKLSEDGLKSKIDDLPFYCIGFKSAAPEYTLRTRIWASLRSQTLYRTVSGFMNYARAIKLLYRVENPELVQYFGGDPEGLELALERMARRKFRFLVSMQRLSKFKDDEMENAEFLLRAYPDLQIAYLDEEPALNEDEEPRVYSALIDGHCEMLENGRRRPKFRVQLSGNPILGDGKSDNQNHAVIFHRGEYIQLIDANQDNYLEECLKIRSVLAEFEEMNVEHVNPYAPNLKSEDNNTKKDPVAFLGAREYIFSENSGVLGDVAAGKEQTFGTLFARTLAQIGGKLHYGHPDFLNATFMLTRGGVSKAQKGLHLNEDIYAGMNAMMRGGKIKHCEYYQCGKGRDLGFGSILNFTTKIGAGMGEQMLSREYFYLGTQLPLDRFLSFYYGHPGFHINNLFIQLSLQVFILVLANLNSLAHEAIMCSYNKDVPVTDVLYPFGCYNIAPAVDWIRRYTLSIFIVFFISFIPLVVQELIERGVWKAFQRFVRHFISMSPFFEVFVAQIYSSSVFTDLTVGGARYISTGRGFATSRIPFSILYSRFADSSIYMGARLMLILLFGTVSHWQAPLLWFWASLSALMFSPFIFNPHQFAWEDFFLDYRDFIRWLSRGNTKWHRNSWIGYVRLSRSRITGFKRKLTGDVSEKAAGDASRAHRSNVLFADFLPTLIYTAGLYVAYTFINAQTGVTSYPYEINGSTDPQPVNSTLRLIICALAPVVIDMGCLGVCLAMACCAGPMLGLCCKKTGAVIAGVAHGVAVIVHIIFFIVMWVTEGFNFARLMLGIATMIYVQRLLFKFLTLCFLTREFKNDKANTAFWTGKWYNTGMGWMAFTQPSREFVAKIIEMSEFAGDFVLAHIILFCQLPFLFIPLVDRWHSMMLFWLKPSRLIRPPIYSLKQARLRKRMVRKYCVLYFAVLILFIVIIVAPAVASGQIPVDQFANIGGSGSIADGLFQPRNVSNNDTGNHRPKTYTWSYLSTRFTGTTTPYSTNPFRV
T1 sequence (O42825 1-195 partner): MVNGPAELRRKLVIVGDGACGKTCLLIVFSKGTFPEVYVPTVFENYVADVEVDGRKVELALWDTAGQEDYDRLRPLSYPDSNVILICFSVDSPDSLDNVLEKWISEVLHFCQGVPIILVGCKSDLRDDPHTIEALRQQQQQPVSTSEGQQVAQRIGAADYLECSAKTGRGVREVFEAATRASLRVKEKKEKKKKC
Description: The fungal cell wall serves as a protective barrier and is essential for viability in a hypotonic environment. (1,3)-β-Glucan is a component of the Candida albicans cell wall, and the enzyme that biosynthesizes this polymer, glucan synthase, is not present in higher eukaryotes. (Glucan synthase is an integral plasma membrane protein that catalyzes polymerization of uridine diphosphate-glucose (UDP-Glc) into β-glucan.) Accordingly, glucan synthase represents an ideal target for the development of antifungal agents.
The assay was conducted as described by Frost, D., Brandt, K. Capobioanco, and Goldman, R., Microbiology 140: 2239-2246 (1994) which is incorporated herein by reference.

`C[C@@H]1[C@H](O)[C@@H](C)/C=C/C=C/C=C/C=C/C=C/C=C/C=C/[C@H](O[C@@H]2O[C@H](C)[C@@H](O)[C@H](N)[C@@H]2O)C[C@@H]2O[C@](O)(C[C@@H](O)C[C@@H](O)[C@H](O)CC[C@@H](O)C[C@@H](O)CC(=O)O[C@H]1C)C[C@H](O)[C@H]2C(=O)O` [Amphotericin B] was tested, and the MIC (fungal organisms) was 480 µg/mL (≈ 519 µM).

`CCCCCCCCOc1ccc(C(=O)N[C@H]2C[C@@H](O)[C@@H](O)NC(=O)[C@@H]3[C@@H](O)[C@@H](C)CN3C(=O)[C@H]([C@@H](C)O)NC(=O)[C@H]([C@H](O)[C@@H](O)c3ccc(O)cc3)NC(=O)[C@@H]3C[C@@H](O)CN3C(=O)[C@H]([C@@H](C)O)NC2=O)cc1` [Cilofungin] ({Benzoyl(4-octyloxy)}-[Orn(4R-OH,5R-OH)]T[Hyp][hTyr(3S-OH,4S-OH)]T[Pro(3S-OH,4S-Me)]; lactam 1-C) showed an MIC (fungal organisms) of 980 µg/mL (≈ 951 µM).

For `CCCCC/C=C\C=C\C(=O)OC[C@H]1O[C@@H](O[C@H]2[C@H](OC(=O)/C(C)=C/C=C/CC(O)C(C)CC)[C@@H](O)[C@H](c3c(O)cc(O)cc3CO)O[C@@H]2CO)[C@H](O)[C@@H](O)[C@H]1O` (stereo partly shown) [Corynecandin], the MIC (fungal organisms) was 980 µg/mL (≈ 1210 µM) and the “Rescue of cell growth by sorbitol” value (fungal organisms; cells treated with compound, sorbitol present) was “Sorbitol could rescue the growth of cells”.

`CCC(O)/C=C/C=C/C=C/C(=O)OC[C@H]1O[C@@H](O[C@H]2[C@H](OC(=O)/C=C/C=C/CC(O)/C(C)=C/C=C/CCC(C)CC)[C@@H](O)[C@@]3(OCc4cc(O)cc(O)c43)O[C@@H]2CO)[C@H](O)[C@@H](O)[C@H]1O` (stereo partly shown) [Papulacandin B] was tested, and the “Broth Dilution Assay MIC at 2 day growth, with sorbitol” value (fungal organisms) was over 250000 µg/mL, the “Broth Dilution Assay MIC at 2 day growth, w/o sorbitol” value (fungal organisms) was 1960 µg/mL and the “In Vitro Inhibition of (1,3)-β-Glucan Synthase Activity IC50” value ((1,3)-β-Glucan Synthase) was 1.9 µg/mL.

Fusacandin was tested, and the “Broth Dilution Assay MIC at 2 day growth, with sorbitol” value (fungal organisms) was over 250000 µg/mL, the “Broth Dilution Assay MIC at 2 day growth, w/o sorbitol” value (fungal organisms) was 1960 µg/mL and the “In Vitro Inhibition of (1,3)-β-Glucan Synthase Activity IC50” value ((1,3)-β-Glucan Synthase) was 25.0 µg/mL.
